From patent US10800791B2, “Triazole ACC inhibitors and uses thereof” (Gilead Apollo, LLC, priority 2015, dated 2020)
pIC50: −log10 of the molar value. Converted amounts (≈) assume the structure as drawn. Where two headings read alike, the source gives them in different places.

Legend:
C. albicans = test: Antifungal Activity Assay (broth microtiter MIC), C. albicans; type: cell-based, Candida albicans; settings: Candida albicans, ATCC90028, 48 h
Procedure, shortened: (§1)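 MICs were scored by eye at 48 h relative to the growth control. Plates followed CLSI M27-A3, with Candida suspensions in RPMI 1640+MOPS giving a final 2.5×10^3 CFU/mL; the colonies came from Sabouraud agar grown overnight at 35 °C.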

C. krusei = test: Antifungal Activity Assay (broth microtiter MIC), C. krusei; type: cell-based, Candida krusei; settings: Pichia kudriavzevii, ATCC6258, 48 h
Procedure, shortened: as §1

C. parapsilosis = test: Antifungal Activity Assay (broth microtiter MIC), C. parapsilosis; type: cell-based, Candida parapsilosis; settings: Lodderomyces parapsilosis, ATCC22019, 48 h
Procedure, shortened: as §1

Botrtyis cinerea (Bc) = test: Growth inhibition assay of fungal pathogens, Bc; type: cell-based; settings: 48 h
Procedure, shortened: (§2)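 Pathogen growth in 17% V8 broth is measured by OD600 at 24 and 48 hours, after blank subtraction, in the presence of compound at 50, 10 and 2 ppm or 2, 0.4 and 0.08 ppm. Inhibition in percent comes from 48-hour readings against the DMSO control.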

[1] = test system: Collectotrichum graminicola (Cg); test: Growth inhibition assay of fungal pathogens, Cg; type: cell-based; settings: 48 h
Procedure, shortened: as §2

Diplodia maydis (Dm) = test: Growth inhibition assay of fungal pathogens, Dm; type: cell-based; settings: Stenocarpella maydis, 48 h
Procedure, shortened: as §2

[2] = test system: Fusarium moniliforme (Fm); test: Growth inhibition assay of fungal pathogens, Fm; type: cell-based; settings: for IC90: Fusarium verticillioides, 48 h, read-out: Concentration at 90% Inhibition Fm
Procedure, shortened: as §2

[3] = test system: Fusarium virguliforme (Fv); test: Growth inhibition assay of fungal pathogens, Fv; type: cell-based; settings: 48 h
Procedure, shortened: as §2

[4] = test system: Phytophthora capsici (Pc); test: Growth inhibition assay of fungal pathogens, Pc; type: cell-based; settings: 48 h
Procedure, shortened: as §2

Septoria tritici (St) = test: Growth inhibition assay of fungal pathogens, St; type: cell-based; settings: Zymoseptoria tritici, 48 h
Procedure, shortened: as §2

fungal (fACC2) = fungal (fACC2) (UniProt Q00955); settings: read-out: fACC2 (in vitro ACC2 Inhibition Assay, IC50), ADP-Glo, 5 nM ACC2, 20 μM ATP, 20 μM acetyl-CoA
[5] = Table 3a, ATCC 90028, 3 replicates, MIC recorded at 48 h, read-out: MIC, C. albicans ATCC 90028
[6] = Table 3b (additional results), ATCC 90028, 3 replicates, MIC recorded at 48 h, read-out: MIC, C. albicans ATCC 90028
[7] = Table 3a, ATCC 6258, 3 replicates, MIC recorded at 48 h, read-out: MIC, C. krusei ATCC 6258
[8] = Table 3b (additional results), ATCC 6258, 3 replicates, MIC recorded at 48 h, read-out: MIC, C. krusei ATCC 6258
[9] = Table 3a, ATCC 22019, 3 replicates, MIC recorded at 48 h, read-out: MIC, C. parapsilosis ATCC 22019
[10] = Table 3b (additional results), ATCC 22019, 3 replicates, MIC recorded at 48 h, read-out: MIC, C. parapsilosis ATCC 22019
[11] = Botrtyis cinerea, growth inhibition at 48 hours vs 2% DMSO control, read-out: Concentration at 90% Inhibition Bc
[12] = Botrtyis cinerea, growth inhibition vs 2% DMSO control at 48 hours, read-out: Concentration at 90% Inhibition Bc
[13] = Collectotrichum graminicola, growth inhibition at 48 hours vs 2% DMSO control, read-out: Concentration at 90% Inhibition Cg
[14] = Collectotrichum graminicola, growth inhibition vs 2% DMSO control at 48 hours, read-out: Concentration at 90% Inhibition Cg
[15] = Diplodia maydis, growth inhibition at 48 hours vs 2% DMSO control, read-out: Concentration at 90% Inhibition Dm
[16] = Diplodia maydis, growth inhibition vs 2% DMSO control at 48 hours, read-out: Concentration at 90% Inhibition Dm
[17] = Fusarium moniliforme, growth inhibition at 48 hours vs 2% DMSO control
[18] = Fusarium moniliforme, growth inhibition vs 2% DMSO control at 48 hours
[19] = growth inhibition at 48 hours vs 2% DMSO control, read-out: Concentration at 90% Inhibition Fv
[20] = growth inhibition vs 2% DMSO control at 48 hours, read-out: Concentration at 90% Inhibition Fv
[21] = growth inhibition at 48 hours vs 2% DMSO control, read-out: Concentration at 90% Inhibition Pc
[22] = growth inhibition vs 2% DMSO control at 48 hours, read-out: Concentration at 90% Inhibition Pc
[23] = Septoria tritici, growth inhibition at 48 hours vs 2% DMSO control, read-out: Concentration at 90% Inhibition St
[24] = Septoria tritici, growth inhibition vs 2% DMSO control at 48 hours, read-out: Concentration at 90% Inhibition St

Sequence of fungal (fACC2) (Q00955 whole entry): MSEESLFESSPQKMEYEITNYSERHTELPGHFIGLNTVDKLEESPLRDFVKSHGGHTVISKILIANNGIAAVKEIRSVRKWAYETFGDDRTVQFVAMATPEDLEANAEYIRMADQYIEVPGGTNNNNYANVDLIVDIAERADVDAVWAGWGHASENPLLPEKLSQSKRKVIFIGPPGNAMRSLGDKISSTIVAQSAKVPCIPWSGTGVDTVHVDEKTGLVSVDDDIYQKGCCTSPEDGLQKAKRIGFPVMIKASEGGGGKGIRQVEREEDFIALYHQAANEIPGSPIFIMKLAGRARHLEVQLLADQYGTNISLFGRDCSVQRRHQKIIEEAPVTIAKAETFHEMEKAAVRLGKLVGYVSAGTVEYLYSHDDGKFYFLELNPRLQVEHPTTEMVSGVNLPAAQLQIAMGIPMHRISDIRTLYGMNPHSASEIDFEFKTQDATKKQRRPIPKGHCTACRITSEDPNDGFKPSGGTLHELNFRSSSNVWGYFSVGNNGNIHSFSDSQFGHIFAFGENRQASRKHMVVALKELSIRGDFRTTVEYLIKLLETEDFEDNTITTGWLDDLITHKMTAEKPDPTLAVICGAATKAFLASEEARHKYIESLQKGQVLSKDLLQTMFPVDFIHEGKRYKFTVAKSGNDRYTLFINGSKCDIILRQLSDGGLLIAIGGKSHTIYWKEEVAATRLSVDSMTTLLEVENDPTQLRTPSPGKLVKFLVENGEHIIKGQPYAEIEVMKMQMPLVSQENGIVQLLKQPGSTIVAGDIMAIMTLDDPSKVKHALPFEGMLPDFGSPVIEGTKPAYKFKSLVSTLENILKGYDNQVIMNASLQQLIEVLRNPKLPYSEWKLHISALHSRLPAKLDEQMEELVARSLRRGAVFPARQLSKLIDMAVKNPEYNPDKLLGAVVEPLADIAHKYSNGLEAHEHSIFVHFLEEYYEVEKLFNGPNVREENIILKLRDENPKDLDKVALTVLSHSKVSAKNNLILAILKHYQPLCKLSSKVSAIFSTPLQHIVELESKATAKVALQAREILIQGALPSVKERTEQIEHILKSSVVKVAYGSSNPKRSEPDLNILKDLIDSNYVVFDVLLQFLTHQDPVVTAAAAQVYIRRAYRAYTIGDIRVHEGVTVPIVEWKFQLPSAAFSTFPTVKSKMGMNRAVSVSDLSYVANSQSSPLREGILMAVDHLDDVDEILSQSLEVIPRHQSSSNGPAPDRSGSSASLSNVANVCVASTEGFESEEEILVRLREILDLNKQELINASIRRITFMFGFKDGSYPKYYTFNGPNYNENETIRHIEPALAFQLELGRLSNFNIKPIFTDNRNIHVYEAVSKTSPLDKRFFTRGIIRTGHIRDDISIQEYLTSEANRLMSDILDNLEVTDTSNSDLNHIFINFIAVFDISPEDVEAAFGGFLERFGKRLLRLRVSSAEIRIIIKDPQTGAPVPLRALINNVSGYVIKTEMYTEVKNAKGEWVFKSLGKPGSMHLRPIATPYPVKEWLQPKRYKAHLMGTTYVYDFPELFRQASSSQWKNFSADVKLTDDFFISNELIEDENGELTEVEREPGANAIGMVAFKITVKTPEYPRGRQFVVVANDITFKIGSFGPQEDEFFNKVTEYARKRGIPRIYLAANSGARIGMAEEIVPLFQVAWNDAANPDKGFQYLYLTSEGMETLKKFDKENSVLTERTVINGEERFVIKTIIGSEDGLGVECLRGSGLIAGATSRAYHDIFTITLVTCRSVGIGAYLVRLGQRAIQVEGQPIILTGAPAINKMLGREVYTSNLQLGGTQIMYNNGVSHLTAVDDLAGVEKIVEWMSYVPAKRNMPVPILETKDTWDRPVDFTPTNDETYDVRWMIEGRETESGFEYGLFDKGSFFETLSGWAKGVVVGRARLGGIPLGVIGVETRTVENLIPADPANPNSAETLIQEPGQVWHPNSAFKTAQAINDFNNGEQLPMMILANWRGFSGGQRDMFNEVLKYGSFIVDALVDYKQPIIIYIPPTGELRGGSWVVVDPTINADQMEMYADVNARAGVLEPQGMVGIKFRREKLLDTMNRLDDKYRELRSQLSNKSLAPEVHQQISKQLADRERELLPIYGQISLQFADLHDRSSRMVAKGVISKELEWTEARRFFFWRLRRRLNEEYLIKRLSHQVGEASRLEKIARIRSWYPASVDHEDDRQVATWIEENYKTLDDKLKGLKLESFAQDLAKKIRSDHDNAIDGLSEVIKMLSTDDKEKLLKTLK

Structure (SMILES) | MIC (C. albicans; [5]) [µg/mL] | MIC (C. albicans; [6]) [µg/mL] | MIC (C. krusei; [7]) [µg/mL] | MIC (C. krusei; [8]) [µg/mL] | MIC (C. parapsilosis; [9]) [µg/mL] | MIC (C. parapsilosis; [10]) [µg/mL] | IC90 (Botrtyis cinerea (Bc); [11]) [µg/mL] | IC90 (Botrtyis cinerea (Bc); [12]) [µg/mL] | IC90 [1, 13] [µg/mL] | IC90 [1, 14] [µg/mL] | IC90 (Diplodia maydis (Dm); [15]) [µg/mL] | IC90 (Diplodia maydis (Dm); [16]) [µg/mL] | IC90 [2, 17] [µg/mL] | IC90 [2, 18] [µg/mL] | IC90 [3, 19] [µg/mL] | IC90 [3, 20] [µg/mL] | IC90 [4, 21] [µg/mL] | IC90 [4, 22] [µg/mL] | pIC50 (fungal (fACC2); Table 2a) | pIC50 (fungal (fACC2); Table 2b, additional results) | also measured
COCCO[C@@H](Cn1c(=O)n(CC(=O)N2CCCC2)c(=O)c2c(C)c(-n3nccn3)sc21)c1cc(F)ccc1OC [Compound I-79, (R)-1-(2-(5-fluoro-2-methoxyphenyl)-2-(2-methoxy-ethoxy)ethyl)-5-methyl-3-(2-oxo-2-(pyrrolidin-1-yl)ethyl)-6-(2H-1,2,3-tria-zol-2-yl)thieno[2,3-d]pyrimidine-2,4(1H,3H)-dione] | 2.1 to 4 (≈ 3.58 to 6.82 µM) | > 4.01 | 2.1 to 4 (≈ 3.58 to 6.82 µM) | > 4.01 | 2.1 to 4 (≈ 3.58 to 6.82 µM) | 2.01 to 4 (≈ 3.43 to 6.82 µM) | 2 (≈ 3.41 µM) | 2 (≈ 3.41 µM) | 2 (≈ 3.41 µM) | 10 (≈ 17 µM) | 2 (≈ 3.41 µM) | 2 (≈ 3.41 µM) | 0.4 (≈ 0.682 µM) | 0.4 (≈ 0.682 µM) | 2 (≈ 3.41 µM) | 10 (≈ 17 µM) | > 50 | > 50 | 8.30 to 9.00 | 8.30 to 9.00 | IC90 (Septoria tritici (St); [23]): > 50 µg/mL; IC90 (Septoria tritici (St); [24]): > 50 µg/mL
COCCO[C@@H](Cn1c(=O)n(CC(=O)NC(C)C)c(=O)c2c(C)c(-n3nccn3)sc21)c1cc(F)ccc1OC [Compound I-80, (R)-2-(1-(2-(5-fluoro-2-methoxyphenyl)-2-(2-methoxy-ethoxy)ethyl)-5-methyl-2,4-dioxo-6-(2H-1,2,3-triazol-2-yl)-1,4-dihydro-thieno[2,3-d]pyrimidin-3(2H)-yl)-N-isopropylacetamide] | – | – | – | – | – | – | – | – | – | – | – | – | – | – | – | – | – | – | 8.30 to 9.00 | 8.30 to 9.00 | MIC (C. albicans; read-out: MIC, C. albicans ATCC 90028, Table 3a, 3 replicates, MIC recorded at 48 h): 2.1 to 4 µg/mL (≈ 3.65 to 6.96 µM); MIC (C. albicans; read-out: MIC, C. albicans ATCC 90028, Table 3b (additional results), 3 replicates, MIC recorded at 48 h): > 4.01 µg/mL; MIC (C. krusei; read-out: MIC, C. krusei ATCC 6258, Table 3a, 3 replicates, MIC recorded at 48 h): 2.1 to 4 µg/mL (≈ 3.65 to 6.96 µM); MIC (C. krusei; read-out: MIC, C. krusei ATCC 6258, Table 3b (additional results), 3 replicates, MIC recorded at 48 h): > 4.01 µg/mL; MIC (C. parapsilosis; read-out: MIC, C. parapsilosis ATCC 22019, Table 3a, 3 replicates, MIC recorded at 48 h): 2.1 to 4 µg/mL (≈ 3.65 to 6.96 µM); MIC (C. parapsilosis; read-out: MIC, C. parapsilosis ATCC 22019, Table 3b (additional results), 3 replicates, MIC recorded at 48 h): 2.01 to 4 µg/mL (≈ 3.5 to 6.96 µM); IC90 (Botrtyis cinerea (Bc); read-out: Concentration at 90% Inhibition Bc, Botrtyis cinerea, growth inhibition at 48 hours vs 2% DMSO control): > 50 µg/mL; IC90 (Botrtyis cinerea (Bc); read-out: Concentration at 90% Inhibition Bc, Botrtyis cinerea, growth inhibition vs 2% DMSO control at 48 hours): > 50 µg/mL; IC90 ([1]; read-out: Concentration at 90% Inhibition Cg, Collectotrichum graminicola, growth inhibition at 48 hours vs 2% DMSO control): > 50 µg/mL; IC90 ([1]; read-out: Concentration at 90% Inhibition Cg, Collectotrichum graminicola, growth inhibition vs 2% DMSO control at 48 hours): > 50 µg/mL; IC90 (Diplodia maydis (Dm); read-out: Concentration at 90% Inhibition Dm, Diplodia maydis, growth inhibition at 48 hours vs 2% DMSO control): > 50 µg/mL; IC90 (Diplodia maydis (Dm); read-out: Concentration at 90% Inhibition Dm, Diplodia maydis, growth inhibition vs 2% DMSO control at 48 hours): > 50 µg/mL; Concentration at 90% Inhibition Fm [2, 17]: AA (compound concentration of 0.08 ppm at 90% inhibition of fungal pathogens); IC90 [2]: 0.08 µg/mL (≈ 0.139 µM); IC90 ([3]; read-out: Concentration at 90% Inhibition Fv, Fusarium virguliforme, growth inhibition at 48 hours vs 2% DMSO control): 2 µg/mL (≈ 3.48 µM); IC90 ([3]; read-out: Concentration at 90% Inhibition Fv, Fusarium virguliforme, growth inhibition vs 2% DMSO control at 48 hours): 10 µg/mL (≈ 17.4 µM); IC90 ([4]; read-out: Concentration at 90% Inhibition Pc, Phytophthora capsici, growth inhibition at 48 hours vs 2% DMSO control): > 50 µg/mL; IC90 ([4]; read-out: Concentration at 90% Inhibition Pc, Phytophthora capsici, growth inhibition vs 2% DMSO control at 48 hours): > 50 µg/mL; IC90 (Septoria tritici (St); read-out: Concentration at 90% Inhibition St, Septoria tritici, growth inhibition at 48 hours vs 2% DMSO control): > 50 µg/mL; IC90 (Septoria tritici (St); read-out: Concentration at 90% Inhibition St, Septoria tritici, growth inhibition vs 2% DMSO control at 48 hours): > 50 µg/mL
COc1ccc(F)cc1[C@H](Cn1c(=O)n(CC(=O)N2CCCC2)c(=O)c2c(C)c(-n3nccn3)sc21)OCCO [Compound I-81, (R)-1-(2-(5-fluoro-2-methoxyphenyl)-2-(2-hydroxy-ethoxy)ethyl)-5-methyl-3-(2-oxo-2-(pyrrolidin-1-yl)ethyl)-6-(2H-1,2,3-triazol-2-yl)thieno[2,3-d]pyrimidine-2,4(1H,3H)-dione] | 2.1 to 4 (≈ 3.67 to 6.99 µM) | 2.01 to 4 (≈ 3.51 to 6.99 µM) | 2.1 to 4 (≈ 3.67 to 6.99 µM) | > 4.01 | 2.1 to 4 (≈ 3.67 to 6.99 µM) | 2.01 to 4 (≈ 3.51 to 6.99 µM) | 0.08 (≈ 0.14 µM) | 0.08 (≈ 0.14 µM) | 2 (≈ 3.49 µM) | 2 (≈ 3.49 µM) | 2 (≈ 3.49 µM) | 2 (≈ 3.49 µM) | 0.08 (≈ 0.14 µM) | 0.08 (≈ 0.14 µM) | 0.4 (≈ 0.699 µM) | 0.4 (≈ 0.699 µM) | > 50 | > 50 | 8.30 to 9.00 | 8.30 to 9.00 | IC90 (Septoria tritici (St); [23]): > 50 µg/mL; IC90 (Septoria tritici (St); [24]): > 50 µg/mL
